The numbers were not newly measured in patent US8198305B2, “1,2-benzisoxazol-3-yl compounds” (Concert Pharmaceuticals Inc., priority 2007, dated 2012), which cites them from elsewhere.

Like-named read-outs stand apart in the source and are kept apart here.

The conditions of this data set: phase III clinical trial.

Turning to `COc1cc(C(C)=O)ccc1OCCCN1CCC(c2noc3cc(F)ccc23)CC1` [iloperidone, 1-[4-[3-[4-(6-fluoro-1,2-benzisoxazol-3-yl)piperidin-1-yl]propoxy]-3-methoxyphenyl]ethanone], the QTc prolongation is 10.4 ms (good metabolizers of iloperidone) and 15.0 ms (poor metabolizers of iloperidone).
